Reference: patent EP0769966B1, “BIOTIN COMPOUNDS FOR TARGETTING TUMORS AND SITES OF INFECTION” (priority 1994, dated 1995)

What was measured:
[1] = system: E. coli infection in right thigh; settings: Time 4 (time unit not given); Reference *1; cited from earlier work
in vivo = type: in vivo, male Sprague-Dawley rats; settings: rat, in vivo, iv
Method: (§1) A clinical isolate of E. Coli was stored at -70°C in a freezing media containing 20% glycerol and 80% dextrose phosphate until use. Aliquots of bacteria were defrosted and colony counts performed on serial dilutions grown overnight on BBL Brucella agar plates. Based on the colony count, freshly thawed bacteria suspensions were washed and diluted with saline to a final concentration of […]. Aliquots (0.1 ml) of bacterial suspensions (8 x 10^9 organisms/ml) were injected into the right thigh muscle of 48 male Sprague-Dawley rats (125-150 g, Charles River Breeding Laboratories, Burlington, MD). Twenty-four rats were used for each labeled biotin compound. Twenty-four hours after injection, swelling in the right thigh readily appeared, and 24 rats each received 1.67 mg of avidin in saline via the tail vein. […] Rats were sacrificed at 5 and 60 min. post-injection, six rats per time point. Blood samples were obtained by cardiac puncture. Syringes were weighed before and after injection to determine the volume delivered. The activity per unit volume was obtained from standards. A total of eleven different tissues were excised, weighed, and counted. These tissues included blood; bone; lung; liver; adrenal; spleen; kidneys; heart; muscle (thigh); teste; and infected muscle (thigh). The excised tissues were blotted, weighed, and counted in a scintillation well counter. The raw counts were decay corrected. The results were expressed as percent injected dose per gram, and infection-to-normal muscle ratios (mean ± s.d.). The biodistribution results were evaluated by analysis of variance (one-way ANOVA). The effect of avidin […] on biodistribution was evaluated by student t-test.

E. coli infected rats = assay: in vivo; type: in vivo, male Sprague-Dawley rats; settings: for Infected to normal tissue ratio, Norm mus: infection/normal muscle
Method: as §1

avidin = avidin (Gallus gallus, UniProt P02701); assay: Competitive binding of F-18 labeled biotin analogs to avidin vs. unlabeled d-biotin
Sequence of avidin (P02701 25-152): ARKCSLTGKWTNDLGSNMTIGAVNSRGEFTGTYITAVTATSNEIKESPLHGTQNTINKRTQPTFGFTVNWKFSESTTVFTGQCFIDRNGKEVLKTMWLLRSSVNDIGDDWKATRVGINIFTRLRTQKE
Method: The two biotin derivatives were evaluated for binding to avidin in the presence of varying concentrations of unlabeled d-biotin as described in Example 3.
A preliminary measure of the binding characteristics of the fluoro analogs of biotin were performed. The binding of these novel F-18 labeled biotin analogs to avidin was evaluated by measuring the binding of F-18 labeled biotin analogs to avidin in the presence of varying concentrations of unlabeled d-biotin. Serial dilutions of d-biotin were prepared in phopshate buffered saline pH 7.4 (PBS). A fixed quantity of the no-carrier added F-18 labeled biotin 1 or 2 (10- 100µCi) were mixed with each d-biotin dilution so that the range of concentrations of cold biotin were 3 orders of magnitude greater and less than the concentration of avidin ([…]). A 200 µl aliquot of the F-18 biotin/cold biotin solution was added to 200 µl of avidin in PBS. The solution was vortexed and allowed to incubate for 1 hour after which time a 5 µl aliquot of the solution was analysed by instant thin layer chromatography (Gelman ILTC-SG) using 0.1 M acetate buffer pH 6.0. In this chromatographic system the F-18 biotin analogs bound to avidin origin while the unbound F-18-biotin analogs move to the solvent front. Percent binding of F-18 biotin analog was calculated as [(counts at origin/total counts)* 100]. For each F-18-biotin analog potential impurities remaining at the origin were determined and the results of binding corrected accordingly.

[2] = Without Avidin, 60 Min., listed as 18F-biotin1
[3] = Without Avidin, 60 Min., listed as 18F-labeled biotin 1

## ^67Ga-citrate
[1]
  Infected/normal muscle ratio: 2.6±0.6

## O=C(CCCC[C@@H]1SC[C@@H]2NC(=O)N[C@@H]21)NCCC[18F] [Biotin 1]
In vivo; Tissue distribution, Adrenal
  tissue uptake at 5 min: 1 ± 0.2 %ID/g
  tissue uptake at 1 h: 0.09 ± 0.02 %ID/g
In vivo; Tissue distribution, Blood
  tissue uptake at 5 min: 1.07 ± 0.31 %ID/g
  tissue uptake at 1 h: 0.14 ± 0.02 %ID/g
In vivo; Tissue distribution, Bone
  tissue uptake at 5 min: 1.1 ± 0.16 %ID/g
  tissue uptake at 1 h: 2.94 ± 0.37 %ID/g
In vivo; Tissue distribution, Heart
  tissue uptake at 5 min: 1 ± 0.34 %ID/g
  tissue uptake at 1 h: 0.14 ± 0.02 %ID/g
In vivo; Tissue distribution, Inf mus
  tissue uptake at 5 min: 1.22 ± 0.36 %ID/g
  tissue uptake at 1 h: 0.43 ± 0.1 %ID/g
In vivo; Tissue distribution, Kidney
  tissue uptake at 5 min: 4.78 ± 0.8 %ID/g
  tissue uptake at 1 h: 0.23 ± 0.05 %ID/g
In vivo; Tissue distribution, Liver
  tissue uptake at 5 min: 1.39 ± 0.16 %ID/g
  tissue uptake at 1 h: 0.13 ± 0.03 %ID/g
In vivo; Tissue distribution, Lung
  tissue uptake at 5 min: 1.21 ± 0.13 %ID/g
  tissue uptake at 1 h: 0.11 ± 0.02 %ID/g
In vivo; Tissue distribution, Norm mus
  tissue uptake at 5 min: 0.83 ± 0.09 %ID/g
  tissue uptake at 1 h: 0.078 ± 0.02 %ID/g
In vivo; Tissue distribution, Spleen
  tissue uptake at 5 min: 1.4 ± 0.3 %ID/g
  tissue uptake at 1 h: 0.14 ± 0.03 %ID/g
In vivo; Tissue distribution, Teste
  tissue uptake at 5 min: 0.57 ± 0.02 %ID/g
  tissue uptake at 1 h: 0.16 ± 0.03 %ID/g
In vivo; ^18F bone uptake (defluorination in vivo)
  tissue uptake at 1 h: 2.94 ± 0.37 %ID/g
E. coli infected rats; With Avidin, 5 Min.
  Infected to normal tissue ratio, Adrenal: 1.20±0.22
  Infected to normal tissue ratio, Blood: 0.90±0.14
  Infected to normal tissue ratio, Heart: 1.08±0.18
  Infected to normal tissue ratio, Kidney: 0.28±0.06
  Infected to normal tissue ratio, Liver: 0.83±0.16
  Infected to normal tissue ratio, Lung: 1.06±0.30
  Infected to normal tissue ratio, Spleen: 0.64±0.11
  Infected to normal tissue ratio, Teste: 2.00±0.37
  Infected to normal tissue ratio, bone: 0.90±0.18
  Infected to normal tissue ratio, Norm mus: 1.24±0.20
E. coli infected rats; With Avidin, 60 Min.
  Infected to normal tissue ratio, Adrenal: 5.74±1.14
  Infected to normal tissue ratio, Blood: 3.75±0.75
  Infected to normal tissue ratio, Heart: 7.59±1.34
  Infected to normal tissue ratio, Kidney: 2.04±0.35
  Infected to normal tissue ratio, Liver: 4.05±0.65
  Infected to normal tissue ratio, Lung: 4.83±0.91
  Infected to normal tissue ratio, Spleen: 3.34±0.72
  Infected to normal tissue ratio, Teste: 3.35±0.56
  Infected to normal tissue ratio, bone: 0.28±0.07
  Infected to normal tissue ratio, Norm mus: 6.39± 0.96
E. coli infected rats; With Avidin, 60 Min., listed as 18F-labeled biotin 1
  Infected to normal tissue ratio, Norm mus: 6.39±0.96
E. coli infected rats; Without Avidin, 5 Min.
  Infected to normal tissue ratio, Adrenal: 1.06±0.24
  Infected to normal tissue ratio, Blood: 1.30±0.86
  Infected to normal tissue ratio, Heart: 1.21±0.26
  Infected to normal tissue ratio, Kidney: 0.26±0.05
  Infected to normal tissue ratio, Liver: 0.89±0.25
  Infected to normal tissue ratio, Lung: 1.00±0.23
  Infected to normal tissue ratio, Spleen: 0.94±0.49
  Infected to normal tissue ratio, Teste: 2.14±0.60
  Infected to normal tissue ratio, bone: 1.06±0.33
  Infected to normal tissue ratio, Norm mus: 1.54±0.69
E. coli infected rats; Without Avidin, 60 Min.
  Infected to normal tissue ratio, Adrenal: 5.20±1.20
  Infected to normal tissue ratio, Heart: 6.21±0.57
  Infected to normal tissue ratio, Lung: 4.21±0.69
  Infected to normal tissue ratio, Spleen: 2.98±0.30
  Infected to normal tissue ratio, Teste: 2.87±0.50
  Infected to normal tissue ratio, bone: 0.16±0.04
  Infected to normal tissue ratio, Norm mus: 6.08 ± 1.12
E. coli infected rats; Without Avidin, 60 Min., listed as 18F-Biotin 1
  Infected to normal tissue ratio, Norm mus: 6.1±1.1
E. coli infected rats; [2]
  Infected to normal tissue ratio, Norm mus: 6.1
  Infected to normal tissue ratio, Blood: 3.1
  Infected to normal tissue ratio, Kidney: 2.0
  Infected to normal tissue ratio, Liver: 3.5
E. coli infected rats; [3]
  Infected to normal tissue ratio, Norm mus: 6.08±1.12
  Infected to normal tissue ratio, Blood: 3.09±0.54
  Infected to normal tissue ratio, Kidney: 1.96±0.24
  Infected to normal tissue ratio, Liver: 3.48±0.67
E. coli infected rats; Without Avidin, 60 Min., listed as biotin 1
  Infected to normal tissue ratio, Norm mus: 6.08± 1.12
E. coli infected rats; rat, in vivo, 5 min
  accumulation in kidney relative to blood: 4.5 fold
E. coli infected rats; rat, in vivo, iv, 5 min
  Tissue distribution, Adrenal: 0.85±0.13 percent injected dose per gram
  Tissue distribution, Blood: 1.13±0.11 percent injected dose per gram
  Tissue distribution, Bone: 1.19±0.23 percent injected dose per gram
  Tissue distribution, Heart: 0.99±0.12 percent injected dose per gram
  Tissue distribution, Inf mus: 0.99±0.11 percent injected dose per gram
  Tissue distribution, Kidney: 4.01±0.77 percent injected dose per gram
  Tissue distribution, Liver: 1.29±0.17 percent injected dose per gram
  Tissue distribution, Norm mus: 0.82±0.12 percent injected dose per gram
  Tissue distribution, Spleen: 1.52±0.32 percent injected dose per gram
  Tissue distribution, Teste: 0.50±0.11 percent injected dose per gram
E. coli infected rats; rat, in vivo, iv, 1 h
  Tissue distribution, Blood: 0.19±0.04 percent injected dose per gram
  Tissue distribution, Bone: 2.29±0.14 percent injected dose per gram
  Tissue distribution, Inf mus: 0.65±0.14 percent injected dose per gram
  Tissue distribution, Kidney: 0.32±0.04 percent injected dose per gram
  Tissue distribution, Norm mus: 0.10±0.02 percent injected dose per gram
  Tissue distribution, Spleen: 0.19±0.0 percent injected dose per gram
  Tissue distribution, Teste: 0.19±0.04 percent injected dose per gram
avidin; in the presence of varying concentrations of unlabeled d-biotin
  binding to avidin: bind to avidin and could be displaced by cold d-biotin
avidin; scatchard transformation of displacement curve, cold d-biotin
  Bmax: 5.57 x 10 ^-16 M
